In patent US12168654B2, “Pyrimidine derivative containing one deuterium atom and preparation process and use thereof” (Guangdong Lewwin Pharmaceutical Research Institute Co., Ltd., priority 2018, dated 2024):
Where two headings read alike, the source gives them in different places.

Assays:
[1] = system: human highly metastatic hepatoma cells MHCC-97H; experiment: MTT anti-tumor cell proliferation test; format: cell-based; conditions: for IC50: Homo sapiens, MHCC97H, MTT
Experimental: The novel pyrimidine derivatives of the invention were tested on their anti-tumor activities. Human highly metastatic hepatoma cells MHCC-97H were employed in the MTT process to evaluate the anti-tumor cell proliferation activities. The specific operation steps were as below: tumor cells were inoculated in a 96-well plate by a certain number of cells, at a cell density of 5×10^3-10×10^3/well. They were incubated in an incubator at 37° C. and a carbon dioxide concentration of 5% overnight, into which was then added the compound samples to be tested. After incubation for 72 hours, MTT was added to keep on for 4 hours, and dissolved with the addition of DMSO with shaking, and then detected with a microplate reader (570 nm).
(1) The anti-tumor cell activities of (R)-1D228 are tested. With Tepotinib and (R)-4D288 as the control, human highly metastatic hepatoma cell MHCC-97Hwas selected to evaluate the antitumor cell proliferative activities through the MTT process. The specific operation steps were as below: the tumor cells were inoculated in a 96-well culture plate following a certain number of cells, the cell density was 5×103-10×10^3/well. After cultivation in an incubator at 37° C. and at a CO2 concentration of 5% overnight, the compound samples to test were added. After cultivation for 72 hours, MTT was added to continue the cultivation for 4 hours. DMSO was then added to dissolve with stirring, and detected with a microplate reader (570 nm).

tumor in naked mice = experiment: Anti-tumor test in naked mice; format: in vivo; conditions: once a day for 2 weeks
in vitro = conditions: for half-life: microsomes
Experimental: Firstly, a SD rat (200-300 g) was fasted for 12 hours, and then infused rapidly with normal saline. Liver was taken out from the rat, from which liver microsomes were extracted at 0-4° C., ready for use after calibrating the concentration of liver microsomes. At 37° C., liver microsomes were incubated in combination with a certain concentration of compounds and auxiliary reagents for a period of time. The reaction was then quenched with acetonitrile.

[2] = Pharmacokinetic properties in mice (IV and PO); conditions: in vivo; for AUC(0-inf) / clearance / half-life / bioavailability: Sprague-Dawley (SD); for Vd / Cmax / Tmax: Sprague-Dawley
[3] = Body weights of animals during administration; format: in vivo, naked mice; conditions: 8 mg/kg, in g (unit assumed)
Excerpt: The body weights of animals in each group during administration are shown in FIG. 9 and Table 7, showing that there were no significant changes in the body weights of mice and there were not abnormal behaviors of mice during administration.

[4] = incubation 72 hours, Table 1, read-out: Human highly metastatic hepatoma cell MHCC-97H (μM), median inhibitory concentration IC50
[5] = cultivation 72 hours, Table 4, read-out: Human highly metastatic hepatoma cell MHCC-97H (μM), inhibitory activity

## CC(c1cccc(-c2ncc(OCC3CCN(C)CC3)cn2)c1)n1nc(-c2cccc(C#N)c2)ccc1=O (racemic) [(±)-5b]
[1]; [4]
  IC50: 0.0353 µM

## [2H][C@@](C)(c1cccc(-c2ncc(OCC3CCN(C)CC3)cn2)c1)n1nc(-c2cccc(C#N)c2)ccc1=O [(R)-1D228]
Tumor in naked mice; 4 mg/kg intragastric
  Relative tumor proliferation rate T/C (%): 1.78%
  Tumor inhibition rate (%): 98.3%
  Tumor weights: 0.011 ± 0.006
Tumor in naked mice; 8 mg/kg intragastric
  Relative tumor proliferation rate T/C (%): 1.17%
  Tumor inhibition rate (%): 98.6%
  Tumor weights: 0.009 ± 0.007

## C[C@H](c1cccc(-c2ncc(OCC3CCN(C)CC3)cn2)c1)n1nc(-c2cccc(C#N)c2)ccc1=O [(R)-5b]
In vitro; SD, rat
  K: 0.0259 min⁻¹
  half-life: 0.447 h
[1]; [4]
  IC50: 0.0037 µM
[1]; MHCC-97H, relative to (S)-5b
  activity for inhibiting tumor cells, times that of (S)-5b: 31.9 times
[1]; MHCC-97H, relative to (±)-5b
  activity for inhibiting tumor cells, times that of (±)-5b: 9.5 times
[2]; iv, 2 mg/kg
  AUC(0-inf): 2140 ng·h/mL
  clearance: 15.5 mL/min/kg
  half-life: 4.23 h
  Vd: 5.69 L/kg
[2]; po, 5 mg/kg
  AUC(0-inf): 4580 ng·h/mL
  bioavailability: 86%
  Cmax: 495 ng/mL
  Tmax: 2 h

## [2H]C([2H])([2H])[C@]([2H])(c1cccc(-c2ncc(OCC3CCN(C)CC3)cn2)c1)n1nc(-c2cccc(C#N)c2)ccc1=O [(R)-14]
Tumor in naked mice; 4 mg/kg intragastric
  Relative tumor proliferation rate T/C (%): 2.28%
  Tumor inhibition rate (%): 98.0%
  Tumor weights: 0.013 ± 0.015
Tumor in naked mice; 8 mg/kg intragastric
  Relative tumor proliferation rate T/C (%): 1.59%
  Tumor inhibition rate (%): 98.2%
  Tumor weights: 0.012 ± 0.006
In vitro; SD, rat
  K: 0.0198 min⁻¹
  half-life: 0.583 h
[2]; iv, 2 mg/kg
  AUC(0-inf): 2440 ng·h/mL
  clearance: 13.7 mL/min/kg
  half-life: 4.48 h
  Vd: 5.29 L/kg
[2]; po, 5 mg/kg
  AUC(0-inf): 6310 ng·h/mL
  bioavailability: 104%
  Cmax: 614 ng/mL
  Tmax: 4 h

## C[C@@H](c1cccc(-c2ncc(OCC3CCN(C)CC3)cn2)c1)n1nc(-c2cccc(C#N)c2)ccc1=O [(S)-5b]
[1]; [4]
  IC50: 0.118 µM

## CC(c1cccc(-c2ncc(OCCCN(C)C)cn2)c1)n1nc(-c2cccc(C#N)c2)ccc1=O (centres unmarked) [Compound 1]
[1]; [4]
  IC50: 0.0476 µM

## [2H][C@@](C)(c1cccc(-c2ncc(OCC3CCN(C)CC3)cn2)c1)n1nc(-c2cccc(C#N)c2)ccc1=O [Compound 1]
[1]; [5]
  IC50: 0.0033 µM

## C[C@H](c1cccc(-c2ncc(OCCCN(C)C)cn2)c1)n1nc(-c2cccc(C#N)c2)ccc1=O [Compound 2]
[1]; [4]
  IC50: 0.014 µM

## [2H]C([2H])([2H])[C@]([2H])(c1cccc(-c2ncc(OCC3CCN(C)CC3)cn2)c1)n1nc(-c2cccc(C#N)c2)ccc1=O [Compound 2]
[1]; [5]
  IC50: 0.0037 µM

## CN1CCC(COc2cnc(-c3cccc(Cn4nc(-c5cccc(C#N)c5)ccc4=O)c3)nc2)CC1 [Compound 3]
[1]; [5]
  IC50: 0.0134 µM

## C[C@@H](c1cccc(-c2ncc(OCCCN(C)C)cn2)c1)n1nc(-c2cccc(C#N)c2)ccc1=O [Compound 3]
[1]; [4]
  IC50: 1.04 µM

## CC(c1cccc(-c2ncc(OCC3CCN(C)CC3)cn2)c1)n1nc(-c2cccc(C#N)c2)ccc1=O (centres unmarked) [Compound 4]
[1]; [4]
  IC50: 0.0353 µM

## CC(c1cccc(-c2ncc(SCCCN(C)C)cn2)c1)n1nc(-c2cccc(C#N)c2)ccc1=O (centres unmarked) [Compound 7]
[1]; [4]
  IC50: 0.0272 µM

## C[C@H](c1cccc(-c2ncc(SCCCN(C)C)cn2)c1)n1nc(-c2cccc(C#N)c2)ccc1=O [Compound 8]
[1]; [4]
  IC50: 0.0139 µM

## C[C@@H](c1cccc(-c2ncc(SCCCN(C)C)cn2)c1)n1nc(-c2cccc(C#N)c2)ccc1=O [Compound 9]
[1]; [4]
  IC50: 0.189 µM

## CC(c1cccc(-c2ncc([Se]CCCN(C)C)cn2)c1)n1nc(-c2cccc(C#N)c2)ccc1=O (centres unmarked) [Compound 10]
[1]; [4]
  IC50: 0.027 µM

## C[C@H](c1cccc(-c2ncc([Se]CCCN(C)C)cn2)c1)n1nc(-c2cccc(C#N)c2)ccc1=O [Compound 11]
[1]; [4]
  IC50: 0.0117 µM

## C[C@@H](c1cccc(-c2ncc([Se]CCCN(C)C)cn2)c1)n1nc(-c2cccc(C#N)c2)ccc1=O [Compound 12]
[1]; [4]
  IC50: 0.415 µM

## [2H]C([2H])([2H])[C@H](c1cccc(-c2ncc(OCC3CCN(C)CC3)cn2)c1)n1nc(-c2cccc(C#N)c2)ccc1=O [Compound 13]
[1]; [4]
  IC50: 0.0035 µM

## [2H]C([2H])([2H])[C@]([2H])(c1cccc(-c2ncc(OCC3CCN(C)CC3)cn2)c1)n1nc(-c2cccc(C#N)c2)ccc1=O [Compound 14]
[1]; [4]
  IC50: 0.0037 µM

## [2H]C([2H])([2H])[C@@]([2H])(c1cccc(-c2ncc(OCC3CCN(C)CC3)cn2)c1)n1nc(-c2cccc(C#N)c2)ccc1=O [Compound 15]
[1]; [4]
  IC50: 1.12 µM

## CN1CCC(COc2cnc(-c3cccc(Cn4nc(-c5cccc(C#N)c5)ccc4=O)c3)nc2)CC1 [Compound 16]
[1]; [4]
  IC50: 0.0134 µM

## CN1CCC(COc2cnc(-c3cccc(Cn4nc(-c5cccc(C#N)c5)ccc4=O)c3)nc2)CC1 [Tepotinib, reference compound]
Tumor in naked mice; 8 mg/kg intragastric
  Relative tumor proliferation rate T/C (%): 4.9%
  Tumor inhibition rate (%): 93.8%
  Tumor weights: 0.041 ± 0.021
[3]; D 0
  body weights D 0: 24.9 ± 1.0
[3]; D 3
  body weights D 3: 25.1 ± 1.1
[3]; D 6
  body weights D 6: 25.3 ± 1.0
[3]; D 9
  body weights D 9: 25.2 ± 1.1
[3]; D 12
  body weights D 12: 25.3 ± 1.0
[3]; D 14
  body weights D 14: 25.1 ± 1.0
In vitro; SD, rat
  half-life: 0.345 h
In vitro; rat liver microsomes, 37° C.
  K: 0.0134 min⁻¹
[2]; mouse, IV 2 mg/kg, read-out: AUC0-∞
  AUC(0-inf): 563 ng·h/mL
[2]; mouse, IV 2 mg/kg, read-out: CL (converted)
  clearance: 59.2 mL/min/kg
[2]; mouse, IV 2 mg/kg, read-out: T1/2 (converted)
  half-life: 1.79 h
[2]; mouse, PO 5 mg/kg vs IV 2 mg/kg, read-out: F % (bioavailability)
  bioavailability: 67.8%
[2]; mouse, PO 5 mg/kg, read-out: AUC0-∞
  AUC(0-inf): 982 ng·h/mL
[2]; mouse, IV 2 mg/kg, read-out: Vz
  Vd: 9.18 L/kg
[2]; mouse, PO 5 mg/kg, read-out: Cmax
  Cmax: 211 ng/mL
[2]; mouse, PO 5 mg/kg, read-out: Tmax
  Tmax: 1 h

## C[C@]12CC[C@H]3[C@@H](CCC4=CC(=O)CC[C@@]43C)[C@@H]1CC[C@@H]2O [testosterone, reference compound]
In vitro; rat liver microsomes, 37° C.
  T1/2 (metabolic half-life in liver microsomes): 2.3 min
